{"source": "patent US20180153995A1", "about": "“USE OF ANTIMICROBIAL POLYMERS FOR RE-SENSITIZATION OF MICROORGANISMS UPON EMERGENCE OF RESISTANCE TO ANTI-MICROBIAL AGENTS” (Technion Research & Development Foundation Limited, priority 2008, published 2018)", "key": {"S. aureus 15819": {"test_system": "S. aureus 15819", "assay": "Antibiotic MIC by microdilution with or without sub-MIC polymer", "assay_type": "cell-based, Staphylococcus aureus", "details": "S. aureus 15819"}, "E. coli 16327": {"test_system": "E. coli 16327", "assay": "microbe, parasite or virus in culture"}, "[1]": {"test_system": "E. coli K-12 resistant wild type", "assay_type": "cell-based, Escherichia coli", "details": "E. coli AG100 (w.t.)"}, "S. maltophila 748": {"test_system": "S. maltophila 748", "assay": "Antibiotic MIC by microdilution with or without sub-MIC polymer", "assay_type": "cell-based, Stenotrophomonas maltophila"}, "S. aureus 17314": {"test_system": "S. aureus 17314", "assay": "Antibiotic MIC by microdilution with or without sub-MIC polymer", "assay_type": "cell-based, Staphylococcus aureus"}, "[2]": {"details": "+½ MIC (3.12 μM) C12K(KNC12K)3NH2"}, "[3]": {"details": "+⅓ MIC (2.1 μM) C12K(KNC12K)3NH2"}}, "note": "Values joined by “and” are separate entries in the source; they are usually repeats but may differ in a detail not shown here. Equal values may be shown once. Read-outs that look alike come from different tables or passages of the source.", "data": [{"smiles": "CCN1CCN(C(=O)N[C@@H](C(=O)N[C@@H]2C(=O)N3[C@@H]2SC(C)(C)[C@@H]3C(=O)O)c2ccccc2)C(=O)C1=O", "note": "[Piperacillin, piperacillin]", "values": [{"measurement": "Antibiotic MIC", "setting": "S. aureus 15819; +¼ MIC (1.6 μM) C12(5-ene)KKNC12KNH2", "result": "8 to 16", "unit": "µg/mL"}, {"measurement": "Antibiotic MIC", "setting": "S. aureus 15819; +¼ MIC (1.6 μM) C12KKNC12KNH2", "result": 16, "unit": "µg/mL"}, {"measurement": "Antibiotic MIC", "setting": "S. aureus 15819; +½ MIC (3.12 μM) C12(5-ene)KKNC12KNH2", "result": 4, "unit": "µg/mL"}, {"measurement": "Antibiotic MIC", "setting": "S. aureus 15819; [2]", "result": 4, "unit": "µg/mL"}, {"measurement": "Antibiotic MIC", "setting": "S. aureus 15819; +½ MIC (3.12 μM) C12KKNC12KNH2", "result": 4, "unit": "µg/mL"}, {"measurement": "Antibiotic MIC", "setting": "S. aureus 15819; +⅓ MIC (2.1 μM) C12(5-ene)KKNC12KNH2", "result": 8, "unit": "µg/mL"}, {"measurement": "Antibiotic MIC", "setting": "S. aureus 15819; [3]", "result": 4, "unit": "µg/mL"}, {"measurement": "Antibiotic MIC", "setting": "S. aureus 15819; +⅓ MIC (2.1 μM) C12KKNC12KNH2", "result": "8 to 16", "unit": "µg/mL"}, {"measurement": "Antibiotic MIC", "setting": "S. aureus 15819; no polymer (None), Table 8", "result": 16, "unit": "µg/mL"}, {"measurement": "Antibiotic MIC", "setting": "S. aureus 15819; no polymer (None), Table 11", "result": 32, "unit": "µg/mL"}, {"measurement": "Antibiotic MIC", "setting": "S. aureus 15819; no polymer (None), Table 13", "result": 32, "unit": "µg/mL"}, {"measurement": "Antibiotic MIC", "setting": "E. coli 16327", "result": "128 µg/mL and 256 µg/mL"}, {"measurement": "Antibiotic MIC", "setting": "E. coli 16327; E. coli 16327, +¼ MIC (1.6 μM) C12K(KNC12K)2NH2", "result": 256, "unit": "µg/mL"}, {"measurement": "Antibiotic MIC", "setting": "E. coli 16327; E. coli 16327, +½ MIC (3.12 μM) C12K(KNC12K)2NH2", "result": 64, "unit": "µg/mL"}, {"measurement": "Antibiotic MIC", "setting": "E. coli 16327; E. coli 16327, +⅓ MIC (2.1 μM) C12K(KNC12K)2NH2", "result": 256, "unit": "µg/mL"}, {"measurement": "Antibiotic MIC", "setting": "E. coli 16327; E. coli 16327, no polymer (None), Table 9", "result": 256, "unit": "µg/mL"}, {"measurement": "Antibiotic MIC", "setting": "E. coli 16327; E. coli 16327, no polymer (None), Table 10", "result": 512, "unit": "µg/mL"}, {"measurement": "Antibiotic MIC", "setting": "E. coli 16327; E. coli 16327, no polymer (None), Table 12", "result": 256, "unit": "µg/mL"}, {"measurement": "Antibiotic MIC, None", "setting": "E. coli 16327; E. coli U-16327, antibiotic alone (Table 15)", "result": 256, "unit": "µg/mL"}, {"measurement": "Antibiotic MIC in presence of C12K(NC8K)7NH2 (SEQ ID NO: 4), +¼ MIC", "setting": "E. coli 16327; E. coli U-16327, polymer at ¼ of its MIC", "result": 256, "unit": "µg/mL"}, {"measurement": "Antibiotic MIC in presence of C12K(NC8K)7NH2 (SEQ ID NO: 4), +½ MIC", "setting": "E. coli 16327; E. coli U-16327, polymer at ½ of its MIC", "result": "32 to 64", "unit": "µg/mL"}, {"measurement": "Antibiotic MIC in presence of C12K(NC8K)7NH2 (SEQ ID NO: 4), +⅓ MIC", "setting": "E. coli 16327; E. coli U-16327, polymer at ⅓ of its MIC", "result": "128 to 256", "unit": "µg/mL"}, {"measurement": "Antibiotic MIC, None", "setting": "[1]; antibiotic alone (Table 16)", "result": 2, "unit": "µg/mL"}, {"measurement": "Antibiotic MIC, None", "setting": "[1]; antibiotic alone (Table 17)", "result": 2, "unit": "µg/mL"}, {"measurement": "Antibiotic MIC in presence of C12K(NC8K)7NH2 (SEQ ID NO: 4), +¼ MIC", "setting": "[1]; polymer at ¼ of its MIC (Table 16)", "result": 2, "unit": "µg/mL"}, {"measurement": "Antibiotic MIC in presence of C12K(NC8K)7NH2 (SEQ ID NO: 4), +½ MIC", "setting": "[1]; polymer at ½ of its MIC (Table 16)", "result": 0.5, "unit": "µg/mL"}, {"measurement": "Antibiotic MIC in presence of C12K(NC8K)7NH2 (SEQ ID NO: 4), +⅓ MIC", "setting": "[1]; polymer at ⅓ of its MIC (Table 16)", "result": 1, "unit": "µg/mL"}, {"measurement": "Antibiotic MIC in presence of the OAK, +¼ MIC", "setting": "[1]; the OAK at ¼ of its MIC (Table 17)", "result": "1 to 2", "unit": "µg/mL"}, {"measurement": "Antibiotic MIC in presence of the OAK, +½ MIC", "setting": "[1]; the OAK at ½ of its MIC (Table 17)", "result": 0.5, "unit": "µg/mL"}, {"measurement": "Antibiotic MIC in presence of the OAK, +⅓ MIC", "setting": "[1]; the OAK at ⅓ of its MIC (Table 17)", "result": 1, "unit": "µg/mL"}, {"measurement": "Antibiotic MIC", "setting": "S. maltophila 748; +¼ MIC (1.6 μM) C12K(KNC12K)3NH2", "result": 32, "unit": "µg/mL"}, {"measurement": "Antibiotic MIC", "setting": "S. maltophila 748; [2]", "result": 32, "unit": "µg/mL"}, {"measurement": "Antibiotic MIC", "setting": "S. maltophila 748; [3]", "result": 32, "unit": "µg/mL"}, {"measurement": "Antibiotic MIC", "setting": "S. maltophila 748; no polymer (None), Table 13", "result": 32, "unit": "µg/mL"}, {"measurement": "Antibiotic MIC", "setting": "S. aureus 17314", "result": 128, "unit": "µg/mL"}, {"measurement": "Antibiotic MIC", "setting": "S. aureus 17314; S. aureus 17314, +¼ MIC (1.6 μM) C12K(KNC12K)2NH2", "result": 128, "unit": "µg/mL"}, {"measurement": "Antibiotic MIC", "setting": "S. aureus 17314; S. aureus 17314, +¼ MIC (1.6 μM) C14(9-ene)KKNC12KNH2", "result": 32, "unit": "µg/mL"}, {"measurement": "Antibiotic MIC", "setting": "S. aureus 17314; S. aureus 17314, +¼ MIC (1.6 μM) C16(9-ene)KKNC12KNH2", "result": 4, "unit": "µg/mL"}, {"measurement": "Antibiotic MIC", "setting": "S. aureus 17314; S. aureus 17314, +½ MIC (3.12 μM) C12K(KNC12K)2NH2", "result": 64, "unit": "µg/mL"}, {"measurement": "Antibiotic MIC", "setting": "S. aureus 17314; S. aureus 17314, +½ MIC (3.12 μM) C12KKNC12KNH2", "result": 64, "unit": "µg/mL"}, {"measurement": "Antibiotic MIC", "setting": "S. aureus 17314; S. aureus 17314, +½ MIC (3.12 μM) C14(9-ene)KKNC12KNH2", "result": 32, "unit": "µg/mL"}, {"measurement": "Antibiotic MIC", "setting": "S. aureus 17314; S. aureus 17314, +½ MIC (3.12 μM) C16(9-ene)KKNC12KNH2", "result": 1, "unit": "µg/mL"}, {"measurement": "Antibiotic MIC", "setting": "S. aureus 17314; S. aureus 17314, +⅓ MIC (2.1 μM) C12K(KNC12K)2NH2", "result": 128, "unit": "µg/mL"}, {"measurement": "Antibiotic MIC", "setting": "S. aureus 17314; S. aureus 17314, +⅓ MIC (2.1 μM) C14(9-ene)KKNC12KNH2", "result": 32, "unit": "µg/mL"}, {"measurement": "Antibiotic MIC", "setting": "S. aureus 17314; S. aureus 17314, +⅓ MIC (2.1 μM) C16(9-ene)KKNC12KNH2", "result": 2, "unit": "µg/mL"}, {"measurement": "Antibiotic MIC", "setting": "S. aureus 17314; S. aureus 17314, no polymer (None), Table 9", "result": 32, "unit": "µg/mL"}]}]}
